Experiment [1] concerns the target T1, Dihydrofolate reductase (Pneumocystis carinii, UniProt P16184).
T1 sequence (P16184 whole entry): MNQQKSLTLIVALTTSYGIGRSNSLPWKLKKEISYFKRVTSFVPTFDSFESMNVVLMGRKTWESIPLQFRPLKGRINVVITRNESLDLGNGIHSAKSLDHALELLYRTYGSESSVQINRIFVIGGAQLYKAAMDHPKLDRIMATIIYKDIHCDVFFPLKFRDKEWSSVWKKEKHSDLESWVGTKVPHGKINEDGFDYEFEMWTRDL
Description: Inhibition of Pneumocystis carinii DHFR using dihydrofolic acid substrate and NADPH cofactor

Experiment [2] has as its target T2, Dihydrofolate reductase (Rattus norvegicus, UniProt Q920D2).
T2 sequence (Q920D2 whole entry): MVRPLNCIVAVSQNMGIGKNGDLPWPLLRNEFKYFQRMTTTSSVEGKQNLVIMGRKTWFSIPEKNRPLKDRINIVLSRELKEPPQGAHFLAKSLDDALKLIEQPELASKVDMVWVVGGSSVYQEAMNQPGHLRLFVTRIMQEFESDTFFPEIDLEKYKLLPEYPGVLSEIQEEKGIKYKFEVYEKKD

Experiment [3] in a line: cells. Conditions: Homo sapiens, HL-60.
Description: Cytotoxicity against human HL60(TB) cells
Experiment [4] has as its system K562. As to the kind of experiment: cells. Particulars: Homo sapiens.
Description: Cytotoxicity against human K562 cells
Experiment [5] deals with MOLT-4. Kind of experiment: cells. Conditions: Homo sapiens.
Description: Cytotoxicity against human MOLT4 cells
In experiment [6] the test system is NCI-H460. Kind of experiment: cells. Conditions: Homo sapiens.
Description: Cytotoxicity against human NCI-H460 cells
Experiment [7] has as its system HT-29. As to the kind of experiment: cells. Particulars: Homo sapiens.
Description: Cytotoxicity against human HT29 cells
In experiment [8] the test system is SW-620. As to the kind of experiment: cells. Conditions: Homo sapiens.
Description: Cytotoxicity against human SW620 cells
Experiment [9] relates to SF-268. As to the kind of experiment: cells. Particulars: Homo sapiens.
Description: Cytotoxicity against human SF268 cells
Experiment [10] relates to LOX IMVI. As to the kind of experiment: cells. Conditions: Homo sapiens.
Description: Cytotoxicity against human LOXIMVI cells
For experiment [11], the system named is PC-3. As to the kind of experiment: cells. Conditions: Homo sapiens.
Description: Cytotoxicity against human PC3 cells
Experiment [12] deals with MCF7. As to the kind of experiment: cells. Conditions: Homo sapiens.
Description: Cytotoxicity against human MCF7 cells
Experiment [13] deals with ACHN. As to the kind of experiment: cells. Conditions: Homo sapiens.
Description: Cytotoxicity against human ACHN cells
Experiment [14] concerns CAKI-1. Kind of experiment: cells. Conditions: Homo sapiens.
Description: Cytotoxicity against human CAKI1 cells
For experiment [15], the system named is 786-0. Kind of experiment: cells. Conditions: Homo sapiens.

A value given as a limit tells only on which side of the number the result lay.

`CCCc1c(Sc2ccc(C(=O)N[C@@H](CCC(=O)O)C(=O)O)cc2)[nH]c2nc(N)nc(N)c12`: the IC50 (usually the concentration that inhibits the measured activity by half) in [1] was determined as 3.11 nM; in [2], 60 nM. For the same compound, the GI50 (as a rule, the concentration giving 50% growth inhibition) turned out to be 1280 nM in experiment [3]; 952 nM in experiment [4]; 19400 nM in experiment [5]; 267 nM in [6]; 9580 nM in [7]; 1210 nM in experiment [8]. For the same compound, the GI50 in experiment [9] was 1610 nM; in experiment [10] it was less than 10 nM; in [11] it was more than 100000 nM; in experiment [12], 164 nM; in experiment [13], 15200 nM; in experiment [14], 376 nM. For the same compound, growth in experiment [15] was halved (GI50) at 12.8 nM.
